Test [1] deals with Rattus norvegicus. The test is described as follows: Ischemia-injured area relative to total area in Langendorff perfused Wistar rat heart subjected to ischemia-reperfusion cycles at 40 mg/kg, ip in presence of 5-hydroxydecanoic acid. It counts as functional. Particulars: route intraperitoneal.
Test [2] deals with Rattus norvegicus. The test can be described thus: LDH release in Langendorff perfused Wistar rat heart subjected to ischemia-reperfusion cycles at 40 mg/kg, ip after 120 mins. It counts as functional. Conditions: route intraperitoneal.
Test [3] deals with Rattus norvegicus. The test can be described thus: Activity in Langendorff perfused Wistar rat heart subjected to ischemia-reperfusion cycles at 40 mg/kg, ip after 30 mins. The class given is functional. Conditions: route intraperitoneal.
Test [4] has as its system Rattus norvegicus. The test is described as follows: Activity in Langendorff perfused Wistar rat heart subjected to ischemia-reperfusion cycles at 40 mg/kg, ip after 30 mins in presence of 5-hydroxydecanoic acid. It counts as functional. Particulars: route intraperitoneal.
Test [5] concerns Rattus norvegicus. The test can be described thus: Ischemia-injured area relative to total area in Langendorff perfused Wistar rat heart subjected to ischemia-reperfusion cycles at 40 mg/kg, ip. Conditions: route intraperitoneal. It counts as functional.
Test [6] has as its system Rattus norvegicus. The test can be described thus: Activity in Langendorff perfused Wistar rat heart subjected to ischemia-reperfusion cycles at 40 mg/kg, ip after 120 mins in presence of 5-hydroxydecanoic acid. It counts as functional. Conditions: route intraperitoneal.
The test system of test [7] is Aorta. The test is described as follows: Vasorelaxation activity on KCl-induced contractile tone in Wistar rat thoracic aortic ring at 100 uM. It counts as functional.
Test [8] relates to Aorta. The test can be described thus: Vasorelaxation activity on KCl-induced contractile tone in Wistar rat thoracic aortic ring. It counts as functional, tissue-based.
Test [9] deals with Rattus norvegicus. The test is described as follows: LDH release in Langendorff perfused Wistar rat heart subjected to ischemia-reperfusion cycles at 40 mg/kg, ip after 120 mins in presence of 5-hydroxydecanoic acid. The class given is functional. Particulars: route intraperitoneal.
For test [10], the system named is Rattus norvegicus. The test is described as follows: Activity in Langendorff perfused Wistar rat heart subjected to ischemia-reperfusion cycles at 40 mg/kg, ip after 120 mins. The class given is functional. Particulars: route intraperitoneal.
Test [11] has as its system Rattus norvegicus. The test can be described thus: Activity in Langendorff perfused Wistar rat heart subjected to ischemia-reperfusion cycles at 1 mg/kg, ip after 30 mins in presence of 5-hydroxydecanoic acid. The class given is functional. Particulars: route intraperitoneal.
The subject of test [12] is Rattus norvegicus. The test can be described thus: Activity in Langendorff perfused Wistar rat heart subjected to ischemia-reperfusion cycles at 1 mg/kg, ip after 120 mins. It counts as functional. Conditions: route intraperitoneal.
Test [13] deals with Rattus norvegicus. The test is described as follows: Ischemia-injured area relative to total area in Langendorff perfused Wistar rat heart subjected to ischemia-reperfusion cycles at 1 mg/kg, ip in presence of 5-hydroxydecanoic acid. The class given is functional. Conditions: route intraperitoneal.
Test [14] relates to Rattus norvegicus. The test is described as follows: LDH release in Langendorff perfused Wistar rat heart subjected to ischemia-reperfusion cycles at 1 mg/kg, ip after 120 mins in presence of 5-hydroxydecanoic acid. The class given is functional. Particulars: route intraperitoneal.
Test [15] has as its system Rattus norvegicus. The test is described as follows: Decrease in systolic blood pressure in Wistar rat at 1 mg/kg, ip after 60 mins. It counts as functional, organism-based. More on the design: dose 1 mg/kg. Conditions: Artery.
The subject of test [16] is Rattus norvegicus. The test can be described thus: Activity in Langendorff perfused Wistar rat heart subjected to ischemia-reperfusion cycles at 1 mg/kg, ip after 30 mins. The class given is functional. Conditions: route intraperitoneal.
The test system of test [17] is Rattus norvegicus. The test is described as follows: LDH release in Langendorff perfused Wistar rat heart subjected to ischemia-reperfusion cycles at 1 mg/kg, ip after 120 mins. Particulars: route intraperitoneal. The class given is functional.
Test [18] concerns Rattus norvegicus. The test can be described thus: Activity in Langendorff perfused Wistar rat heart subjected to ischemia-reperfusion cycles at 1 mg/kg, ip after 120 mins in presence of 5-hydroxydecanoic acid. The class given is functional. Particulars: route intraperitoneal.
The test system of test [19] is Rattus norvegicus. The test is described as follows: Ischemia-injured area relative to total area in Langendorff perfused Wistar rat heart subjected to ischemia-reperfusion cycles at 1 mg/kg, ip. It counts as functional. Conditions: route intraperitoneal.

Active and inactive are the calls of the source. The rule behind the calls is not given here.

As for `CC1(C)CC2(CN(Cc3ccc(NS(C)(=O)=O)cc3)C(=O)CO2)c2cc(Br)ccc2O1` (racemic), the Activity in the test on Rattus norvegicus [1] worked out at 47%; in the test on Rattus norvegicus [3], 75%; with Rattus norvegicus [4], 52%; in the test with Rattus norvegicus [5], 13%; in the test on Rattus norvegicus [6], 39%; with Rattus norvegicus [9], 11.7 U/g. In the test on Rattus norvegicus [10], this molecule returned an Activity of 57%. Further, the LDH release in the test with Rattus norvegicus [2] turned out to be 3 U/g. In the test on Aorta [7], this molecule gave an Emax at 100 µM of 87%. In the test on Aorta [8], the IC50 is 7.24 µM.
Consider `CC(=O)Nc1ccc(CN2CC3(CC(C)(C)Oc4ccccc43)OCC2=O)cc1` (racemic), for which the Activity in the test with Rattus norvegicus [1] is 49%; in the test on Rattus norvegicus [3], 79%; with Rattus norvegicus [4] it was 16%; with Rattus norvegicus [5], 20%; in the test with Rattus norvegicus [6], 27%; in the test on Rattus norvegicus [9] it was 13.5 U/g. The molecule further returned an Activity with Rattus norvegicus [10] of 62%. Besides, in the test with Rattus norvegicus [2], the LDH release was found to be 6 U/g. In the test on Aorta [7], the Emax at 100 µM was found to be 57%. In addition, in the test on Aorta [8], the midpoint of inhibition, the IC50, lay at 25.1 µM.
For `CC1=Nc2ccc(Cl)cc2S(=O)(=O)N1` [DIAZOXIDE], the Activity in the test with Rattus norvegicus [1] is on record as 52%; in the test with Rattus norvegicus [3], 80%; with Rattus norvegicus [4], 13%; in the test with Rattus norvegicus [5], 22%; with Rattus norvegicus [6], 6%; in the test on Rattus norvegicus [9] it was 14.5%. For the same molecule, the Activity in the test with Rattus norvegicus [10] came out at 47%. In the test on Rattus norvegicus [2], this molecule gave an LDH release of 5.7 U/g. In addition, in the test on Aorta [7], the Emax at 100 µM worked out at 97%. The molecule also had an IC50 with Aorta [8] of 19.1 µM.
The molecule `CC(=O)Nc1ccc(CN2CCOC3(C2)CC(C)(C)Oc2ccc(Br)cc23)cc1` (racemic) gave an LDH release with Rattus norvegicus [2] of 11.3 U/g. The Activity with Rattus norvegicus [3] worked out at 15%; in the test with Rattus norvegicus [5], 61%; with Rattus norvegicus [10], 26%. The Emax at 100 µM with Aorta [7] amounted to 99%. Besides, half-maximal inhibition in the test on Aorta [8] (IC50) required 2.4 µM.
Consider `CC1(C)Oc2ccc(C#N)cc2C(N2CCCC2=O)C1O` (racemic) [CROMAKALIM], for which the Activity in the test on Rattus norvegicus [11] turned out to be 11%; in the test on Rattus norvegicus [12], 84%; in the test with Rattus norvegicus [13] it was 38%; in the test with Rattus norvegicus [14], 8.6%; in the test with Rattus norvegicus [16] it was 99%; in the test on Rattus norvegicus [17] it was 5.5%. Besides, the Activity in the test on Rattus norvegicus [18] came out at 18%; in the test on Rattus norvegicus [19], 25%. For the same molecule, the result with Rattus norvegicus [15] was Active. The Emax at 100 µM in the test with Aorta [7] is 98%. Also, in the test with Aorta [8], half-maximal inhibition (IC50) required 0.0977 µM.
On to `CC(=O)Nc1ccc(CN2CC3(CC(C)(C)Oc4ccc(Br)cc43)OCC2=O)cc1` (racemic), for which the LDH release in the test on Rattus norvegicus [2] stood at 12.4 U/g. Further, the Activity in the test on Rattus norvegicus [3] was 2%; in the test with Rattus norvegicus [5], 58%; with Rattus norvegicus [10], 3%. Also, the Emax at 100 µM in the test with Aorta [7] worked out at 70%. Further, the midpoint of inhibition in the test on Aorta [8], the IC50, lay at 15.1 µM.
Molecule `CC(=O)Nc1ccc(CN2CCOC3(C2)CC(C)(C)Oc2ccccc23)cc1` (racemic) displayed an LDH release with Rattus norvegicus [2] of 16 U/g. The figures for the Activity in the test on Rattus norvegicus [3], in the test with Rattus norvegicus [5] and in the test on Rattus norvegicus [10] were 12%, 50% and 17%, respectively. The molecule also gave an Emax at 100 µM with Aorta [7] of 77%. For the same molecule, in the test with Aorta [8], the midpoint of inhibition, the IC50, lay at 13.2 µM.
Regarding `CC1(C)CC2(CN(Cc3ccc(NS(C)(=O)=O)cc3)CCO2)c2cc(Br)ccc2O1` (racemic), the Activity in the test on Rattus norvegicus [1] was 40%; with Rattus norvegicus [3] it was 89%; in the test with Rattus norvegicus [4], 17%; in the test with Rattus norvegicus [5], 14%; with Rattus norvegicus [6], 33%; in the test on Rattus norvegicus [9], 13.4 U/g. Besides, the Activity in the test on Rattus norvegicus [10] was found to be 77%. This molecule displayed an LDH release with Rattus norvegicus [2] of 6.9 U/g. Further, the Emax at 100 µM in the test on Aorta [7] worked out at 98%.

These data come from ChEMBL document CHEMBL1138211, “New benzopyran-based openers of the mitochondrial ATP-sensitive potassium channel with potent anti-ischemic properties” (J Med Chem, 2006).
